Tested on: deadnettle (henbit deadnettle, Lamium amplexicaule)
Assay: Test D controlled growth environment herbicide test, pre- and postemergence
Type: in vivo
Outline: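 Rating is visual, 0–100 scale (100 = complete control), made against untreated plants 14–21 d after treatment in controlled growth conditions. Postemergence sprays went onto 1- to 4-leaf plants in peat medium; preemergence sprays onto silt loam after sowing; formulation included a surfactant.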

[1] = Postemergence, 31 g ai/ha, scale 0 to 100 (0 no effect, 100 complete control)
[2] = Postemergence, 125 g ai/ha, visual rating on scale 0 (no effect) to 100 (complete control), 14 to 21 d
[3] = Postemergence, 250 g ai/ha, scale 0 to 100 (0 no effect, 100 complete control)
[4] = Preemergence, 62 g ai/ha, scale 0 to 100 (0 no effect, 100 complete control)
[5] = Preemergence, 125 g ai/ha, scale 0 to 100 (0 no effect, 100 complete control)
[6] = Preemergence, 250 g ai/ha, scale 0 to 100 (0 no effect, 100 complete control)
[7] = postemergence, 62 g ai/ha, scale 0 to 100, 0 no effect, 100 complete control

| Structure (SMILES) | Deadnettle plant response rating [1] | Plant response rating, Deadnettle [2] | Plant response rating, Deadnettle [3] | Plant response rating (scale of 0 to 100), Deadnettle (Preemergence, 31 g ai/ha) | Plant response rating, Deadnettle [4] | Plant response rating, Deadnettle [5] | Plant response rating, Deadnettle [6] | Plant response rating, Deadnettle [7] | Plant response rating (scale of 0 to 100), Deadnettle (Preemergence, 62 g ai/ha) |
| --- | --- | --- | --- | --- | --- | --- | --- | --- | --- |
| CC(=O)Oc1c(C)nn(C)c(=O)c1-c1c(C)sc2c(C)cc(C)cc12 [Compound 27] | 5 | 30 | 60 | 0 | 0 | 55 | 80 | 5 |  |
| COc1nn(C)c(=O)c(-c2c(C)ccc3ccccc23)c1OC(=O)OC(C)C [Compound 36] | 80 | 100 | 100 | 0 | 0 | 50 | 85 | 100 |  |
| Cc1ccc(-c2c(O)c(Br)nn(C)c2=O)c2ccccc12 [Compound 52] | 35 | 35 | 35 | 0 | 0 | 10 | 25 | 25 |  |
| COc1nn(C)c(=O)c(-c2c(C)ccc3ccccc23)c1O [Compound 54] | 100 | 100 | 100 | 0 | 60 | 70 | 95 | 100 |  |
| Cc1ccc2ccccc2c1-c1c(O)c(C)nn(C)c1=O [Compound 59] | 80 | 90 | 100 | 50 | 90 | 90 | 100 | 80 |  |
| Cc1ccc2ccc(C)c(-c3c(O)c(C)nn(C)c3=O)c2c1 [Compound 60] | 70 | 95 | 95 | 35 | 90 | 85 | 100 | 75 |  |
| Cc1cc(C)c2sc(C)c(-c3c(OC(=O)OC(C)C)c(C)nn(C)c3=O)c2c1 [Compound 67] | 40 | 40 | 60 | 15 | 30 | 55 | 60 | 30 |  |
| CCOC(=O)Oc1c(C)nn(C)c(=O)c1-c1c(C)ccc2ccccc12 [Compound 73] | 75 | 100 | 100 | 0 | 0 | 70 | 100 | 90 |  |
| Cc1nn(C)c(=O)c(-c2c(C)sc3ccc(Cl)cc23)c1O [Compound 104] | 45 | 70 | 85 | 65 |  | 80 | 100 | 50 | 80 |
